According to paper PMC7127646 (Bioorganic & Medicinal Chemistry Letters, 2009):

Assays:
[1] = biological target: T1, SARS-CoV helicase (Severe acute respiratory syndrome coronavirus, UniProt P0C6X7); assay type: biochemical
[2] = biological target: T1, SARS-CoV helicase; assay type: biochemical; remark: listed apart in the source

O=c1c(O)c(-c2ccc3c(c2)OCO3)oc2cc(O)cc(O)c12 [Compound 3b, 2-Benzo[1,3]dioxol-5-yl-3,5,7-trihydroxy-chromen-4-one]
inhibition of helicase ATPase activity (in words) [1]: failed to show any inhibition | inhibition of duplex DNA-unwinding activity (in words) [2]: failed to show any inhibition
